Test results: US20120190580A1, “TREATMENT OF PATIENTS AFTER STENT IMPLANTATION OR BALLOON DILATATION AND DRUG ELUTING STENTS” (MAX-PLANCK-GESELLSCHAFT ZUR FORDERUNG DER WISSENSCHAFTEN …, priority 2009, published 2012)

Experiments:
Assay type in all cases: in vivo, mouse
mesenteric arteries = test: Myograph: contractile responses to phenylephrine of mesenteric arteries from losartan-treated mice
Excerpt: (§1) A 129S7AB2.2 genomic BAC clone (bMQ-446B20; Sanger) was used to generate the targeting vector. Recombination in SW102 cell was employed to replace the miR-143 to miR-145 genomic region by a galK cassette (45) that was amplified by the primers flanking premiR-143 to pre-miR-145 ([…] GCggcgcgcctcagcactgtcctgctcctt; […] ACggcgcgcctgttgacaattaatcatcggca). The genomic sequence was inserted via gap repair into a pKO targeting vector containing a DTA expression cassette and 450 bp homology arms for BAC recombination resulting in a vector containing 6.5 kb of sequence 5′ of miR-143 and 5.5 kb 3′ of miR-145 from genomic sequence […] to […]. The AscI restriction sites flanking the galK cassette were used to replace the galK by a floxed IRESIacZ-NeoR cassette. The vector was electroporated into MPI II ES cells (46) and recombinant clones were identified. Recombinant ES cells were injected into blastocysts and transferred to pseudopregnant mice. Chimeric animals were backcrossed to C57BL/6 mice. Heterozygous animals were used to obtain WT and KO littermates. ES cells and mice were genotyped using an EcoRV restriction digest and a 5′ outside probe amplified from genomic DNA using oligonucleotides ([…]; […]). For chronic ACE or AT1 inhibition drinking water of mice was supplemented with 600 μg/ml captopril (Sigma#C-8856) and 100 µg/ml losartan (Fluka#61188) for at least 3 weeks. The experiments were performed in accordance with German legislation on protection of animals and were approved by the local governmental animal care committee (Regierungspraesidium Darmstadt).
Isolated segments of femoral and mesenteric arteries were examined in an isometric microvessel myograph as described previously (52). Mounted vessels were stimulated with 80 mM K+, 30 nM angiotensin II or increasing concentrations of phenylephrine (100 nM to 10 μM). The pCa-force relationships (13, 14) were obtained in permeabilized mouse femoral artery segments. In brief, arteries were permeabilized for 30 minutes using 0.5% Triton X-100 in relaxation solution. The latter consisted of (in mM): EGTA 1, Pipes 30, Na2ATP 5.16, MgCl2 7.31, sodium creatine phosphate 10 and potassium gluconate 74.1. For contraction curves the buffer was supplemented with 160 U/ml calmodulin and 100 U/ml creatine phosphokinase. The concentration of free Ca2+ ions was calculated as described previously (53).

[1] = system: aortae of miR-143/145 KO mice; test: Affymetrix GeneChip mRNA expression analysis of aortae after chronic captopril or losartan
Excerpt: as §1, with “For chronic ACE or AT1 inhibition drinking water of mice was supplemented with 600 μg/ml captopril (Sigma#C-8856) and 100 µg/ml losartan (Fluka#61188) for at least 3 weeks.” left out
Tissues were dissected from PBS perfused animals and total RNA was isolated using the Trizol method (Invitrogen). RNA quality was checked on the Agilent 2100 Bioanalyser using the RNA 6000 Nano Kit. For mRNA expression analysis the Affymetrix GeneChip Mouse Genome 430 2.0 Array was employed with the respective one-cycle target labelling protocol. Data were analysed by the RMA algorithm using the Affymetrix Expression Console. […] 507 probe sets were identified with p<0.05 and FC>1.5 or FC<0.666. For miRNA expression analysis 384 3′ C6 aminolinker DNA-oligonucleotides complementary to published miRNA (Sanger, miRBase) sequences were synthesised and spotted with eight replicates per array to Nexterion E slides. Probe labelling and hybridization followed the Agilent miRNA labelling protocol, but P-CTTTT-Alexa555 or P-CTTTTAlexa647 oligonucleotides (MWG-Biotech) were ligated to the miRNAs. Arrays were scanned and analysed with an Axon 4200B scanner and GenePix Pro 6.0. Normalisation and data analysis was performed using Acuity 4.0. For multiple tissue comparison, miRNA from tissues was labelled with the Alexa555 dye, miRNA from whole E15.5 embryos labelled with Alexa647 dye was used as a reference. Data were linear normalized to a log ratio of 1 for the ratio of medians of let-7a-g and let-7i signals. The log 2 ratio data were centered for the single miRNA expression signals (by subtracting the row mean from each value), log 2 ratio data are visualized. For Northern blot analysis 3 μg (aorta 1.5 μg) of total RNA were separated on a 15% Polyacrylamide-Urea gel (Invitrogen) and blotted on Hybond XL (Amersham). miR-145, miR-143 and U6 antisense oligonucleotides were labeled with γ-ATP and PNK (NEB) and purified using Micro Bio-Spin® 6 columns (Biorad). Hybridization was performed in Ultrahyb hybridization buffer (Ambion) at 30° C. over night. Blots were washed 2 times in 2×SSC/0.1% SDS at 25° C. (5 min) and at 42° C. (15 min). Signals were detected using a BAS-2500 imager (Fujifilm).

arteries of KO mice = test: Morphological analysis of arteries after chronic treatment; details: 20 days treatment
Excerpt: A 129S7AB2.2 genomic BAC clone (bMQ-446B20; Sanger) was used to generate the targeting vector. Recombination in SW102 cell was employed to replace the miR-143 to miR-145 genomic region by a galK cassette (45) that was amplified by the primers flanking premiR-143 to pre-miR-145 ([…] GCggcgcgcctcagcactgtcctgctcctt; […] ACggcgcgcctgttgacaattaatcatcggca). The genomic sequence was inserted via gap repair into a pKO targeting vector containing a DTA expression cassette and 450 bp homology arms for BAC recombination resulting in a vector containing 6.5 kb of sequence 5′ of miR-143 and 5.5 kb 3′ of miR-145 from genomic sequence […] to […]. The AscI restriction sites flanking the galK cassette were used to replace the galK by a floxed IRESIacZ-NeoR cassette. […]
Arteries were perfused using a PBS solution via the heart apex at 100 mmHg pressure for 2 min, followed by perfusion with 4% paraformaldehyde in PBS. […] Ultra-thin sections were stained with uranyl acetate and lead citrate, viewed and photographically recorded using a Philips CM 10 electron microscope. The phenotype of VSMC was determined ultrastructurally following criteria as previously reported (47). […] The phenotype of VSMC in each mouse was quantified in at least 300 cells per 3 arterial segments (minimum 100 μm) using consecutive transversal sections. […]

[2] = aorta, chronic oral treatment 20 days

SMILES: CCCCc1nc(Cl)c(CO)n1Cc1ccc(-c2ccccc2-c2nn[nH]n2)cc1 [losartan]
- phenylephrine induced contraction relative to K+ force (mesenteric arteries; KO mice, losartan for 3 weeks): 96 % of the K+ force
- enhancement of phenylephrine induced contraction (mesenteric arteries; KO mice, losartan for 3 weeks, 3 μM phenylephrine): 214%
- enhancement of phenylephrine induced contraction (mesenteric arteries; KO mice, losartan for 3 weeks, 10 μM phenylephrine): 57%
- phenylephrine-induced vasoconstriction (mesenteric arteries; WT mice, losartan): did not affect
- contractility on phenylephrine stimulation (mesenteric arteries; arterial rings from KO animals, losartan-treated vs. KO untreated): significant enhancement
- FC Acta1 (1427735_a_at), treated miR-143/145 KO vs. WT [1, 2]: 0.76
- FC Arhgef17 (1433682_at), treated miR-143/145 KO vs. WT [1, 2]: 1.11
- FC Cald1 (1424768_at), treated miR-143/145 KO vs. WT [1, 2]: 1.53
- FC Camk2g (1423942_a_at), treated miR-143/145 KO vs. WT [1, 2]: 1.17
- FC Cap2 (1423222_at), treated miR-143/145 KO vs. WT [1, 2]: 1.36
- FC Clcn3 (1433486_at), treated miR-143/145 KO vs. WT [1, 2]: 1.27
- FC Efemp1 (1427183_at), treated miR-143/145 KO vs. WT [1, 2]: 0.71
- FC Itga3 (1455158_at), treated miR-143/145 KO vs. WT [1, 2]: 0.84
- FC Krt8 (1420647_a_at), treated miR-143/145 KO vs. WT [1, 2]: 1.00
- FC Mc2r (1422926_at), treated miR-143/145 KO vs. WT [1, 2]: 0.70
- FC Mylk (1425506_at), treated miR-143/145 KO vs. WT [1, 2]: 1.06
- FC Mylpf (1448371_at), treated miR-143/145 KO vs. WT [1, 2]: 1.05
- FC Myoc (1450468_at), treated miR-143/145 KO vs. WT [1, 2]: 0.76
- FC Neo1 (1440789_at), treated miR-143/145 KO vs. WT [1, 2]: 1.27
- FC Npr3 (1435184_at), treated miR-143/145 KO vs. WT [1, 2]: 1.68
- FC Pde3b (1433694_at), treated miR-143/145 KO vs. WT [1, 2]: 0.87
- FC Ppp2r1b (1419871_at), treated miR-143/145 KO vs. WT [1, 2]: 0.65
- FC Prkg1 (1449876_at), treated miR-143/145 KO vs. WT [1, 2]: 1.16
- FC Rock1 (1460729_at), treated miR-143/145 KO vs. WT [1, 2]: 1.77
- FC S100a8 (1419394_s_at), treated miR-143/145 KO vs. WT [1, 2]: 1.83
- FC S100a9 (1448756_at), treated miR-143/145 KO vs. WT [1, 2]: 1.64
- FC Serca1 (1419312_at), treated miR-143/145 KO vs. WT [1, 2]: 0.82
- FC Tnnc2 (1417464_at), treated miR-143/145 KO vs. WT [1, 2]: 1.51
- FC Unc5c (1449522_at), treated miR-143/145 KO vs. WT [1, 2]: 0.80
- number of the 507 deregulated probe sets returned to normal (WT) levels ([1]; mutant mice, 3 weeks (20 days) oral application, p > 0.05 vs. WT, n = 3): 220
- significant morphological changes in arteries (arteries of KO mice): not observed
